Here are results for 14 molecules from patent publication US20230174485A1, “LIPOXYGENASE INHIBITORS” (SRI International, priority 2020, published 2023).

Several values for one entry are separate records, joined by “and”; a condition that tells them apart may be missing. Identical values can stand only once. Like-named read-outs stand apart in the source and are kept apart here.

What is called IC50 is the concentration that inhibits the measured activity by half.

Holding throughout (assay type): biochemical
Test [1] deals with T1, recombinant 12-LOX enzyme (Homo sapiens, UniProt P18054).
T1 sequence (P18054 1-663): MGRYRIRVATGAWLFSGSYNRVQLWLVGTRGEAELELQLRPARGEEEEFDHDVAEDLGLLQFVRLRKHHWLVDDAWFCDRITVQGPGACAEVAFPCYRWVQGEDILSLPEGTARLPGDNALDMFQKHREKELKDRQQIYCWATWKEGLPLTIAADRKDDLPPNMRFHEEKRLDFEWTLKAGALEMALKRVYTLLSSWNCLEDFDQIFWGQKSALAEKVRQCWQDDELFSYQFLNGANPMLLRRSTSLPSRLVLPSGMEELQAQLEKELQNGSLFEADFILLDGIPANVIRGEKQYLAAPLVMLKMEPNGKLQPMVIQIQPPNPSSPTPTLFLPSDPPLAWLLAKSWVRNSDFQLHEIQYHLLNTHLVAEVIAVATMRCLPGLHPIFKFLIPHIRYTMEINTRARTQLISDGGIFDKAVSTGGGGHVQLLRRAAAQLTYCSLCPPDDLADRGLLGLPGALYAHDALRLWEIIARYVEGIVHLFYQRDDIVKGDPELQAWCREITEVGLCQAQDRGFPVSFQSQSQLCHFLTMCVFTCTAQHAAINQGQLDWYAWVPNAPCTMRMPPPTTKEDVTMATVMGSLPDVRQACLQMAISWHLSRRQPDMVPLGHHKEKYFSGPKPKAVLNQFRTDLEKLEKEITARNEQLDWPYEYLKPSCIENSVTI
Put plainly: 12-LOX fluorescent assay. The conditions noted are these: several values in one cell = repeat determinations; read-out: IC50 (μM) values for in vitro lipoxygenase inhibition, 12-LOX. The protocol: (§1) 12-LOX/15-LOX Fluorescent Assay
(§2) The enzyme assay (100 ul) contained 50 mM Tris, pH 7.5, 0.05% Tween-20, 20 μM AA/LA, 1 μM DHR123, and 100 nM recombinant 12-LOX enzyme/50 nM recombinant 15-LOX enzyme. Inhibitors (dissolved in DMSO) were plated at 1 μL into 96-well assay microplates followed by a 40 μL addition of a solution containing 12-LOX/15-LOX enzyme. Enzyme was pre-incubated with compounds for 15 mins. The assay was initiated by the addition of a 40 μL substrate solution containing AA/LA, and 20 μL addition of a solution containing DHR123. Enzymatic reaction proceeded for 30 min with kinetic reading at 500 nm excitation & 536 nm emission in SpectraMax Paradigm (MolecularDevice). Percent inhibition was calculated for each compound dose for IC50 curve fitting using 4 Parameter Logistic Model or Sigmoidal Dose-Response Model.

For test [2], the target named is T2, recombinant 5-LOX (Homo sapiens, UniProt P09917).
T2 sequence (P09917 1-674): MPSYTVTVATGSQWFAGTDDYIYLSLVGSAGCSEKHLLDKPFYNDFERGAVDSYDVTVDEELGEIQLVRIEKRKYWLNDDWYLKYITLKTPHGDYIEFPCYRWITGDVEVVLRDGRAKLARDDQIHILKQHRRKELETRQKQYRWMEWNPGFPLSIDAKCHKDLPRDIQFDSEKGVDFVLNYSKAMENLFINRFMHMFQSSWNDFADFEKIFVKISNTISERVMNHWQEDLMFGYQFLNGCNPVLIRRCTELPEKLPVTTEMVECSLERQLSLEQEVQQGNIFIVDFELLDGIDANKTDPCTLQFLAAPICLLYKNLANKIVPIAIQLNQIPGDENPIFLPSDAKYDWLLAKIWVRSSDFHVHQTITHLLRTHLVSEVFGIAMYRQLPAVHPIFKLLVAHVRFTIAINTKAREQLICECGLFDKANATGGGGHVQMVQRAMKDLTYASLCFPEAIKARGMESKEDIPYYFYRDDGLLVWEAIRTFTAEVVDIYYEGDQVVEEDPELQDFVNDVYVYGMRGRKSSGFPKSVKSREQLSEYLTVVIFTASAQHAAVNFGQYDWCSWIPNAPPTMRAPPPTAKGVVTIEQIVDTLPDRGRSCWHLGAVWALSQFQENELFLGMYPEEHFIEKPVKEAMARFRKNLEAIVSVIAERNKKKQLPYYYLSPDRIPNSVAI
Put plainly: 5-LOX fluorescent assay. The conditions noted are these: several values in one cell = repeat determinations; read-out: IC50 (μM) values for in vitro lipoxygenase inhibition, 5-LOX. As to the method:
5-LOX FI assay Fluorescent Assay
The enzyme assay (100 μL) contained 50 mM Tris, pH 7.5, 0.1 mM EDTA, 0.3 mM CaCl2, 20 μM AA, 100 μM ATP, 1 μM DHR123, and recombinant 5-LOX cell lysate (0.5 μL/100 μL). Inhibitors (dissolved in DMSO) were plated at 1 μL into 96-well assay microplates followed by a 40 μL addition of a solution containing 5-LOX enzyme. Enzyme was pre-incubated with compounds for 15 mins. The assay was initiated by the addition of a 40 μL substrate solution containing AA and ATP, and 20 μL addition of a solution containing DHR123. Enzymatic reaction proceeded for 30 min with kinetic reading at 500 nm excitation & 536 nm emission in SpectraMax Paradigm (MolecularDevice). Percent inhibition was calculated for each compound dose for IC50 curve fitting using 4 Parameter Logistic Model or Sigmoidal Dose-Response Model.

Test [3] deals with T3, recombinant 15-LOX enzyme (Homo sapiens, UniProt P16050).
T3 sequence (P16050 1-662): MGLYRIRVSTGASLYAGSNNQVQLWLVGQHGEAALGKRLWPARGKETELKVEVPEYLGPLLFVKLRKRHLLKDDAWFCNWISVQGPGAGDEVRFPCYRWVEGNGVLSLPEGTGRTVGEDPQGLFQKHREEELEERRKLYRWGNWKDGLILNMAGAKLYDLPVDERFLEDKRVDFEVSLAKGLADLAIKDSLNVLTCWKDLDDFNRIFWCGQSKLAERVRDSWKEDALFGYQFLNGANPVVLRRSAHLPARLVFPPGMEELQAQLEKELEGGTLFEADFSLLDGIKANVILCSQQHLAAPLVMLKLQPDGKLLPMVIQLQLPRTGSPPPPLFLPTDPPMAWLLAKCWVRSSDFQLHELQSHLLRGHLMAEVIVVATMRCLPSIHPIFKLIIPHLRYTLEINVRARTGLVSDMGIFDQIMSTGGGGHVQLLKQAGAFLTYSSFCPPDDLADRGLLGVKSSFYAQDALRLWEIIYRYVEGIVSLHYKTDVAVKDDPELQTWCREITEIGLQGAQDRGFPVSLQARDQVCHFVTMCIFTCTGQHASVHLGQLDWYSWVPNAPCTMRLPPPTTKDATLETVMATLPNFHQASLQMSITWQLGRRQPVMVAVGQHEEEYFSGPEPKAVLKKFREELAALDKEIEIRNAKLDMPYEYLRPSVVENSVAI
As to the kind of experiment: 15-LOX fluorescent assay. As to conditions: several values in one cell = repeat determinations. As to the method:
as §1, §2

Where [4] appears, read: read-out: IC50 (μM) values for in vitro lipoxygenase inhibition, 15-LOX.
The mark [5] stands for this setting: IC50 (μM) values for in vitro lipoxygenase inhibition, 15-LOX.

Take `c1ccc2c(c1)CCc1cc(NCCn3cncn3)ccc1N2` [SS20308-0276-01, N-(2-(1H-1,2,4-triazol-1-yl)ethyl)-10,11-dihydro-5H-dibenzo[b,f]azepin-2-amine]: the half-inhibitory concentration (IC50) in test [1] is 0.03 µM and 0.02 µM; in test [2], 0.13 µM and 0.06 µM; in test [3] (setting [4]), 0.28 µM and 0.1 µM.
For `CN(C)CCCc1c2[nH]c3ccccc3c2cc2[nH]c3ccccc3c12` [SS20308-0104-01, 3-(5,11-dihydroindolo[3,2-b]carbazol-6-yl)-N,N-dimethylpropan-1-amine], the IC50 in test [3] (setting [5]) turned out to be 0.02 µM.
For `c1ccc(CN(CCCn2cncn2)c2ccc3[nH]c4ccccc4c3c2)cc1` [SS20308-0097-01, N-(3-(1H-1,2,4-triazol-1-yl)propyl)-N-benzyl-9H-carbazol-3-amine], the IC50 in test [2] was 33 µM and > 1 µM.
Turning to `c1ccc(N(CCn2cncn2)c2ccc3[nH]c4ccccc4c3c2)cc1` [SS20308-0108-01, N-(2-(1H-1,2,4-triazol-1-yl)ethyl)-N-phenyl-9H-carbazol-3-amine], the IC50 is 0.55 µM and 0.26 µM and 0.35 µM in test [2]; 1 µM and 0.41 µM and 0.86 µM in test [3] (setting [5]).
With `Fc1ccc2[nH]c3cc(C(F)(F)F)c(NCC4(Cn5cncn5)COC4)cc3c2c1` [SS20308-0295-01, N-((3-((1H-1,2,4-triazol-1-yl)methyl)oxetan-3-yl)methyl)-6-fluoro-2-(trifluoromethyl)-9H-carbazol-3-amine], the IC50 was 0.22 µM in test [1], 0.66 µM in test [2] and 0.49 µM in test [3] (setting [4]).
`c1ccc(-c2cc3c([nH]c4ccccc43)c(OCCn3cncn3)n2)cc1` [SS20308-0018-01]: the IC50 in test [1] was determined as 4.07 µM; in test [2], 47 µM; in test [3] (setting [5]), 1.39 µM.
As for `c1ccc2c(c1)CCc1cc(C3CCCCC3)c(NCCn3cncn3)cc1N2` [SS20308-0271-01, N-(2-(1H-1,2,4-triazol-1-yl)ethyl)-2-cyclohexyl-10,11-dihydro-5H-dibenzo[b,f]azepin-3-amine], the IC50 was 0.11 µM and 0.12 µM in test [1]; 0.15 µM and 0.17 µM in test [2]; 0.28 µM and 0.32 µM in test [3] (setting [4]).
For `Fc1ccc2[nH]c3cc(-c4ccccc4)c(NCCn4cncn4)cc3c2c1` [SS20308-0094-01, N-(2-(1H-1,2,4-triazol-1-yl)ethyl)-6-fluoro-2-phenyl-9H-carbazol-3-amine], in test [1], the concentration for half-maximal inhibition (IC50) is 30 nM and 40 nM (3×).
For `CN(C)CCOc1c2[nH]c3ccccc3c2c(F)c2[nH]c3ccccc3c12` [SS20308-0102-01, 2-(12-fluoro-5,11-dihydroindolo[3,2-b]carbazol-6-yloxy)-N,N-dimethylethanamine], the half-maximal inhibitory concentration (IC50) in test [1] was 0.05 µM and 0.11 µM; in test [3] (setting [5]), 0.02 µM and 0.04 µM.
On to `CN(C)CCc1cc(Nc2ccc(Cl)cc2)cc2c1[nH]c1ccccc12` [SS20308-0257-01, N-(4-chlorophenyl)-1-(2-(dimethylamino)ethyl)-9H-carbazol-3-amine], for which the concentration for half-maximal inhibition (IC50) in test [2] is 0.01 µM and 0.04 µM.
With `c1ccc(-c2cc3c(cc2NCCn2cncn2)Nc2ccccc2CC3)cc1` [SS20308-0152-01, N-(2-(1H-1,2,4-triazol-1-yl)ethyl)-2-phenyl-10,11-dihydro-5H-dibenzo[b,f]azepin-3-amine], the IC50 is 0.05 µM and 0.08 µM in test [1]; 0.08 µM and 0.2 µM in test [3] (setting [4]).
In the case of `CN(C)CCCc1c2[nH]c3ccc(F)cc3c2c(F)c2[nH]c3ccc(F)cc3c12` [SS20308-0163-01, N,N-dimethyl-3-(2,8,12-trifluoro-5,11-dihydroindolo[3,2-b]carbazol-6-yl)propan-1-amine], the concentration for half-maximal inhibition (IC50) in test [2] is 20 nM (2×) and 40 nM and 50 nM and 10 nM.
Consider `CN(C)CCOc1c(O)ccc2c1[nH]c1ccc(F)cc12` [SS20308-0004-01, 1-(2-(dimethylamino)ethoxy)-6-fluoro-9H-carbazol-2-ol], for which the half-maximal inhibitory concentration (IC50) in test [1] came out at 3.19 µM; in test [3] (setting [4]) it was 2.55 µM.
With `CC(C)CCOc1cc2c3ccccc3[nH]c2c2[nH]c3ccccc3c12` [SS20308-0127-01, 5-(isopentyloxy)-11,12-dihydroindolo[2,3-a]carbazole], the IC50 in test [1] was 0.09 µM and 0.04 µM and 0.14 µM; in test [3] (setting [4]) it was 0.12 µM and 0.08 µM and 0.17 µM.
